Our source for the solubility values is patent US20230310309A1, “INJECTABLE DEPOT COMPOSITIONS FOR THE DELIVERY OF ANTIVIRAL AGENTS” (Merck Sharp & Dohme LLC, priority 2020, published 2023).

Each structure is given as a SMILES string. ≈ marks a conversion by molar mass, not a printed value.

The data set is described as follows: solubility of islatravir in PBS. It is filed as physicochemical. The note with it: phosphate buffered saline (PBS), aqueous buffer, 37° C.

One may read the solubility as the dissolved amount per volume that the medium holds. The molecule `C#C[C@]1(CO)O[C@@H](n2cnc3c(N)nc(F)nc32)C[C@@H]1O` [islatravir, 4′-ethynyl-2-fluoro-2′-deoxyadenosine] came in with a solubility of 1350 µg/mL (≈ 4.6 mM).
